The source of these data is patent US5945125A, “Controlled release tablet” (Temple University, priority 1996, dated 1999).

Data set [1] in a line: In vitro release of drugs from tablets (USP basket procedure, water, 100 rpm, 37° C.). The format is physicochemical. To be noted: for constancy of release: PEO tablets of MW 0.9×10^6, 2×10^6, 4×10^6 (FIGS. 9-14); for effect of drug loading on release: PEO tablets, different drug loadings. On the procedure:
A set of tablet punches with flat surfaces were used to prepare tablets of various diameters, including 7 mm, 8.1 mm, 9.5 mm, and 11 mm. They were charged with the formulation, and the compression of 2000 to 4000 pounds was exerted by turning over the machine by hand.
In vitro release of drugs from the different formulation tablets was carried out by using the USP basket procedure in distilled/deionized water at a stirring rate of 100 rpm and 37° C., if not otherwise stated. Theophylline and diltiazem HCl were chosen as model drugs. The release of theophylline and diltiazem HCl was assayed by a HP.backslash.8252A (Hewlett Packard Corporation) diode-array spectrophotometer at 244 nm and 266 nm, respectively. The release kinetic data (up to 60% release) were treated by equation (1) above.
According to the criteria for release kinetics from a swellable matrix (cylindrical shape), zero-order and anomalous transport kinetics are represented by 0.89 <n<1.0 and 0.45<n<0.89, respectively. A linear regression analysis (Microsoft Excel 5.0) of the logarithmic form of equation (1) was carried out with R^2 ≥0.99.
A set of tablet punches with flat surfaces were used to prepare the tablets having diameters of 11.1 mm and weights of 550 mg except for the sulfathiazole tablets which were 9.5 mm in diameter and weighed 400 mg. All the tablets were compressed to 4000 pounds.
Similarly, FIGS. 10, 12 and 14 show particular drugs used for testing with their typical solubilities. A set of tablet punches with flat surfaces were used to prepare the tablets having diameters of 11.1 mm and weights of 550 mg except for the sulfathiazole tablets which were 9.5 mm in diameter and weighed 400 mg. The tablets were compressed to 4000 pounds.
A set of tablet punches with flat surfaces were used to prepare the tablets having diameters of 11.1 mm and weights of 550 mg except for the sulfathiazole tablets, which were 9.5 mm in diameter and weighed 400 mg. All the tablets were compressed to 4000 pounds per square inch.

For data set [2] the following is noted: cited from earlier work.
The mark [3] stands for this setting: PEO MW 4×10^6, 20% drug loading.
[4] abbreviates: PEO MW 4×10^6, 39% drug loading.

≈ marks a conversion by molar mass, not a printed value. Entries after “also recorded” stand apart in the source; their conditions may differ. Counter-ions that a name gives are not always drawn. Like-named read-outs stand apart in the source and are kept apart here.

`O=C(O)Cc1ccccc1Nc1c(Cl)cccc1Cl` [diclofenac sodium]: in data set [1] (PEO MW 0.9×10^6, 20% drug loading (FIG. 31)), the “n (release kinetics exponent)” value was 0.93. Besides, the “effect of lactose on release kinetics” value in data set [1] (PEO MW 4×10^6, 39% drug vs 20% drug and 19% lactose, same total weight (FIG. 6)) is on record as “superimposable (except for the final stage of release); also recorded: superimposable (except in the final stage of release)”. In data set [1], the constancy of release result was “least constant release; also recorded: constant or near constant release kinetics” and the “effect of drug loading on release” value is reported as “did not significantly change”.
Regarding `COc1ccc([C@@H]2Sc3ccccc3N(CCN(C)C)C(=O)[C@@H]2OC(C)=O)cc1` [diltiazem HCl, diltiazem hydrochloride], in data set [2] (in water), the solubility is greater than 50%.
For `O=C(O)c1ccccc1O` [salicylic acid], the “release at which profiles from 20% and 39% loaded tablets cross” value in data set [1] (PEO MW 2×10^6 (FIG. 31)) is reported as “about 50%”. The results for the “release kinetics exponent n” value in data set [1] (setting [3]) and in data set [1] (setting [4]) were 0.72 and 0.81, respectively. For the same compound, the constancy of release result in data set [1] was “Constant release rates over the longest period of time”.
Turning to `Nc1ccc(S(=O)(=O)Nc2ncccn2)cc1` [sulfadiazine], the constancy of release result in data set [1] is “most constant release over the longest period of time”.
Take `Nc1ccc(S(=O)(=O)Nc2ccccn2)cc1` [sulfapyridine]: in data set [1] (PEO MW 4×10^6 (FIG. 14)), the period of release entry is recorded as “relatively short” and the “release kinetics exponent n” value is given as 1.10. Moreover, in data set [1] (PEO tablets (FIG. 31)), the “effect of 39% versus 20% drug loading on release profile” value is “shifted to the left of the release profiles from 20% loaded tablets”.
Take `Nc1ccc(S(=O)(=O)Nc2nccs2)cc1` [sulfathiazole]: in data set [1] (PEO MW 4×10^6 (FIG. 31)), the “release at which profiles from 20% and 39% loaded tablets cross” value is “about 50%”. The results for the “release kinetics exponent n” value in data set [1] (setting [3]) and in data set [1] (setting [4]) were 0.78 and 0.94, respectively. Further, in data set [1] (PEO tablets (FIGS. 10, 12, 14)), the “shape of release profile” value is reported as “slightly sigmoidal profile”. Moreover, the constancy of release result in data set [1] was “Constant release rates over the longest period of time”. The solubility in data set [2] is 590 mg/L (≈ 2310 µM).
In the case of `Cn1c(=O)c2[nH]cnc2n(C)c1=O` [theophylline], the “release exponent (n)” value is reported as 0.99 (±0.024) in data set [1] (PEO MW 0.9×10^6 tablet (FIG. 2)), 0.80 (±0.004) in data set [1] (PEO MW 2×10^6 tablet (FIG. 2)) and 0.83 (±0.019) in data set [1] (PEO MW 4×10^6 tablet (FIG. 2)). Also, the “effect of pH of dissolution medium on release” value in data set [1] (PEO tablets (FIG. 3)) is “not significantly influenced by the pH variation”. The constancy of release entry in data set [1] is on record as “least constant release; also recorded: constant or near constant release kinetics”. Moreover, in data set [1], the “effect of drug loading on release” value is reported as “superimposed”. In addition, the solubility in data set [2] (in water) was less than 1.0%.
